Measurements: ChEMBL document CHEMBL5291721, “A preclinical secondary pharmacology resource illuminates target-adverse drug reaction associations of marketed drugs” (Nat Commun, 2023)

Key:
[1] = target: T1, Muscarinic acetylcholine receptor M1 (Homo sapiens, UniProt P11229); format: functional, cell-based
T1 sequence (P11229 whole entry): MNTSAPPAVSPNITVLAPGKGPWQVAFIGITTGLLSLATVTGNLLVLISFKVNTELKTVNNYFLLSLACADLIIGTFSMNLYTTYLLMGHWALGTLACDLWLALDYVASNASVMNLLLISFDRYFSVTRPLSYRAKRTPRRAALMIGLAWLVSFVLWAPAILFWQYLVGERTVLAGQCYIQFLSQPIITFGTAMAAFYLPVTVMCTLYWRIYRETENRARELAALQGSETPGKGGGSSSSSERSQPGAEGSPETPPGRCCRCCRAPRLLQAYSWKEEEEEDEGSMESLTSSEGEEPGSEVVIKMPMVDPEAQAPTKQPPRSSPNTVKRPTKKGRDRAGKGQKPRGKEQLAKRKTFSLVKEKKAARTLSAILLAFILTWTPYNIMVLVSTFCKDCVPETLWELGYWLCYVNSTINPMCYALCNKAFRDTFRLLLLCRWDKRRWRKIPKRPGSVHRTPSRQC

[2] = target: Gamma-aminobutyric acid receptor subunit alpha-1 (Rattus norvegicus, UniProt P62813)
Sequence of Gamma-aminobutyric acid receptor subunit alpha-1 (P62813 whole entry): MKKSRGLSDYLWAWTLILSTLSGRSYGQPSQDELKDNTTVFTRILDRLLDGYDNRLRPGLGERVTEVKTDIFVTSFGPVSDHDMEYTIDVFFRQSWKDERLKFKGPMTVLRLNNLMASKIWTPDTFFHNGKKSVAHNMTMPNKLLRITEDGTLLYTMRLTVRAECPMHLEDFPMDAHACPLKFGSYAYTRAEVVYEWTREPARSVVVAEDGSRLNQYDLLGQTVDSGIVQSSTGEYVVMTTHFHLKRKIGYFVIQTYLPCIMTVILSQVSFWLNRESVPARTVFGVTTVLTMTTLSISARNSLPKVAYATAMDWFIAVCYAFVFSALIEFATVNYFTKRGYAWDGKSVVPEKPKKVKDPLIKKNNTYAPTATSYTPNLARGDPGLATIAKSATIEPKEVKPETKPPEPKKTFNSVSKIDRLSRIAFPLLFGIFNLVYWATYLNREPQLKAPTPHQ

[3] = target: T2, Alpha-2C adrenergic receptor (Homo sapiens, UniProt P18825); format: functional
T2 sequence (P18825 whole entry): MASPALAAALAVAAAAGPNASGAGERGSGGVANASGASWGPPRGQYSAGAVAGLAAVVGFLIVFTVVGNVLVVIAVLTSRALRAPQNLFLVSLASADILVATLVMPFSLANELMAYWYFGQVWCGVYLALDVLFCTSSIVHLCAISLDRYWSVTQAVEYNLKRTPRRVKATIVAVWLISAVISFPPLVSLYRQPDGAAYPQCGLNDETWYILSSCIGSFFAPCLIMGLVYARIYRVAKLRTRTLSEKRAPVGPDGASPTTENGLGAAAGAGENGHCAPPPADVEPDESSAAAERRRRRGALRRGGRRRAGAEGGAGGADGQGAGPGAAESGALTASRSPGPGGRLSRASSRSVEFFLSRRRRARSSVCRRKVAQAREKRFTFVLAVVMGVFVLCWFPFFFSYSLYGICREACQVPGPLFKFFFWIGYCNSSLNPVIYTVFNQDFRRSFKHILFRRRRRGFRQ

[4] = target: T3, Muscarinic acetylcholine receptor M2 (Homo sapiens, UniProt P08172); format: functional, cell-based
T3 sequence (P08172 whole entry): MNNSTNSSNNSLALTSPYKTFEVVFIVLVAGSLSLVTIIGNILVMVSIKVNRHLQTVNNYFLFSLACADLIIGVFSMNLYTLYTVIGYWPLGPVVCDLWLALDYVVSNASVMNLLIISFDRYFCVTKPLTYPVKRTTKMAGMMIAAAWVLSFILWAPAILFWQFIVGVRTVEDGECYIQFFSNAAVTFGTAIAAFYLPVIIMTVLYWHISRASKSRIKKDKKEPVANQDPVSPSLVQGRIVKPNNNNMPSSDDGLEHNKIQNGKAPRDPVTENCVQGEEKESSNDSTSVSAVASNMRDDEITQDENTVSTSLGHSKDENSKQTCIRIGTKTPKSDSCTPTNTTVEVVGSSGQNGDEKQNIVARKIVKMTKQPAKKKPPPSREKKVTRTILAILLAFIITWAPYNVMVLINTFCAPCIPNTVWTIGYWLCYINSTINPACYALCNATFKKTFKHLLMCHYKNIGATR

[5] = target: T4, Prostaglandin G/H synthase 1 (Rattus norvegicus, UniProt Q63921); format: functional
T4 sequence (Q63921 whole entry): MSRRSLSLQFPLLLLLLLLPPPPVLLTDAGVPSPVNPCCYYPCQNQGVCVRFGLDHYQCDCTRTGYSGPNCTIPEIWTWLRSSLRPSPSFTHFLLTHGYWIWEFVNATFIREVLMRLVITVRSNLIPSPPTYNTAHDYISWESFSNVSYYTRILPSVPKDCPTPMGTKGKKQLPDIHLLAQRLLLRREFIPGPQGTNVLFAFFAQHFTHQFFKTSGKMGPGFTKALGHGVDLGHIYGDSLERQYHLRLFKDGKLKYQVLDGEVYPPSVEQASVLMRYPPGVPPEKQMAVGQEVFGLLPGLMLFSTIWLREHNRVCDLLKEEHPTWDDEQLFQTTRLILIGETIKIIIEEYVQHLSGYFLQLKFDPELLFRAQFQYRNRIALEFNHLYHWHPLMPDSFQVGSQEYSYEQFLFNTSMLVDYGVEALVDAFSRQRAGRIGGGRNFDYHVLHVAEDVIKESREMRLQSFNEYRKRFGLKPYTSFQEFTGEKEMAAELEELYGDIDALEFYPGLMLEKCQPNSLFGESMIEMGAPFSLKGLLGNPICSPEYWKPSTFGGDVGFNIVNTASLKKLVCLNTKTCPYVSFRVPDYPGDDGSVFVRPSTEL

[6] = target: cGMP-inhibited 3',5'-cyclic phosphodiesterase 3A (Homo sapiens, UniProt Q14432); format: functional
Sequence of cGMP-inhibited 3',5'-cyclic phosphodiesterase 3A (Q14432 whole entry): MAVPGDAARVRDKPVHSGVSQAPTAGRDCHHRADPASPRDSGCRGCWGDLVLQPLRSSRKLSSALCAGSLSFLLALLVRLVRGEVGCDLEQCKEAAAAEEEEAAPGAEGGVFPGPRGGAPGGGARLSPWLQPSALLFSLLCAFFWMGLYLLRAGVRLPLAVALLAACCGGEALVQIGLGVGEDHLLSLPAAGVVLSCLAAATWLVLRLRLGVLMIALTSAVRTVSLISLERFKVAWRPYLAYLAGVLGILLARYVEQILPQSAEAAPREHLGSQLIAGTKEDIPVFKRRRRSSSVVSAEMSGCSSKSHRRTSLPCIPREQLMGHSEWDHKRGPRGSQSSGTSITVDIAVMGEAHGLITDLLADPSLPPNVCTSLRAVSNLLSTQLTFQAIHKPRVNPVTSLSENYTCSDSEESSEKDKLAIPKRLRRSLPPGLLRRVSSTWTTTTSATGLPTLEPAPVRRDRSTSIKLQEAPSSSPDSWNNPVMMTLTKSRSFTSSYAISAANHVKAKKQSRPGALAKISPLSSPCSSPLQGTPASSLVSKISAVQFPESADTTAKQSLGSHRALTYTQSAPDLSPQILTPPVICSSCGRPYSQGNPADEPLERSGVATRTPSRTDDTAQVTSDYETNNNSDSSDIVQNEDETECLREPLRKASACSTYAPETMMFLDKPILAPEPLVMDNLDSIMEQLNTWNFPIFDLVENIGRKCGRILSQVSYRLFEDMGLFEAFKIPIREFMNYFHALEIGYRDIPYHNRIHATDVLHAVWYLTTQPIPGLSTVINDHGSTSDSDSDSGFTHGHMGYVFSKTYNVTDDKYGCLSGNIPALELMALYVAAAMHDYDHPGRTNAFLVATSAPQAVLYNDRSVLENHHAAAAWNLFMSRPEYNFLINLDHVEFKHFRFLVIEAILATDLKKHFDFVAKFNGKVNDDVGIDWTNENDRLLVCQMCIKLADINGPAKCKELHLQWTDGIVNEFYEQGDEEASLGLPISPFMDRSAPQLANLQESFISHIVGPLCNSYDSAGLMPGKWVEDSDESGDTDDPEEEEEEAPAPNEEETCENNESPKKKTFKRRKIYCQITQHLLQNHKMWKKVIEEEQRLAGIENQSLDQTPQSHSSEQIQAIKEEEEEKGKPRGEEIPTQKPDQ

[7] = target: T5, Alpha-2B adrenergic receptor (Homo sapiens, UniProt P18089)
T5 sequence (P18089 whole entry): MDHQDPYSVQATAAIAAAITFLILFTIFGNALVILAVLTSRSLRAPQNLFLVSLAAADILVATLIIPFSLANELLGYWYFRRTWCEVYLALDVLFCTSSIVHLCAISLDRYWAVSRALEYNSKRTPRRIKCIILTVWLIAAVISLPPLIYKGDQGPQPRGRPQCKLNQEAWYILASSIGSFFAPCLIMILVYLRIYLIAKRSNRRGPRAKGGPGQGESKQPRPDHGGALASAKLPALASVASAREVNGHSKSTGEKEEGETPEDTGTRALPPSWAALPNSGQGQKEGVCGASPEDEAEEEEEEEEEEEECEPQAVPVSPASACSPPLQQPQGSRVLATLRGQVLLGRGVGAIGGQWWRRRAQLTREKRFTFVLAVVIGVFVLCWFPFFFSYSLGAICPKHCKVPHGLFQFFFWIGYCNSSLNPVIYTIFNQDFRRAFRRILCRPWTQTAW
Note: assay procedure not described here.

Row | Compound | AC50 [1] [µM] | AC50 [2] [µM] | further results
1 | NS(=O)(=O)c1cc2c(cc1Cl)NC(C1CC3C=CC1C3)NS2(=O)=O (stereo not drawn) [CYCLOTHIAZIDE] | 17.6 | > 30 | 
2 | O=C(NC1CCN(CCCCC2(C(=O)NCC(F)(F)F)c3ccccc3-c3ccccc32)CC1)c1ccccc1-c1ccc(C(F)(F)F)cc1 [LOMITAPIDE] | 3.86 | > 30 | 
3 | C[C@@H]1O[C@@H](OC[C@H]2O[C@@H](Oc3c(-c4ccc(OCCO)c(OCCO)c4)oc4cc(OCCO)cc(O)c4c3=O)[C@H](O)[C@@H](O)[C@@H]2O)[C@H](O)[C@H](O)[C@H]1O [TROXERUTIN] | > 30 |  | 
4 | CC(C)Cc1ccc(C(C)C(=O)NO)cc1 (stereo not drawn) [IBUPROXAM] | 20.1 |  | 
5 | CCC1(c2cccc(O)c2)CCCCN(C)C1 (stereo not drawn) [MEPTAZINOL] | > 30 | > 30 | 
6 | O=[N+]([O-])c1cncn1CCN1CCOCC1 [NIMORAZOLE] | > 30 | > 30 | 
7 | CCC1C(C)=NN=C(c2ccc(OC)c(OC)c2)c2cc(OC)c(OC)cc21 (stereo not drawn) [TOFISOPAM] | 25.3 | > 30 | 
8 | CCOC(=O)CC(SP(=S)(OC)OC)C(=O)OCC (stereo not drawn) [MALATHION] | 27.1 | > 30 | 
9 | CC[C@@H]1/C=C(\C)C[C@H](C)C[C@H](OC)[C@H]2O[C@@](O)(C(=O)C(=O)N3CCCC[C@H]3C(=O)O[C@H](/C(C)=C/[C@@H]3CC[C@H](Cl)[C@H](OC)C3)[C@H](C)[C@@H](O)CC1=O)[C@H](C)C[C@@H]2OC [PIMECROLIMUS] | > 30 |  | 
10 | CC(C(=O)O)c1ccc2c(c1)Cc1cccnc1O2 (stereo not drawn) [PRANOPROFEN] | > 30 |  | 
11 | COc1cc2c(cc1OC)[C@H]1C[C@@H](OC(=O)[C@@H](N)C(C)C)[C@H](CC(C)C)CN1CC2 [VALBENAZINE] | > 10 | > 30 | 
12 | CCS(=O)(=O)N1CC(CC#N)(n2cc(-c3ncnc4[nH]ccc34)cn2)C1 [BARICITINIB] | > 10 | > 30 | 
13 | CCC(Cc1c(I)cc(I)c(N)c1I)C(=O)O (stereo not drawn) [IOPANOIC ACID] | 14.5 | > 30 | 
14 | COc1cc(NCc2ccc3nc(N)nc(N)c3c2C)cc(OC)c1OC [TRIMETREXATE] | 12.3 | > 30 | 
15 | Nc1nc(-n2cc(C(=O)O)c(=O)c3cc(F)c(N4CC(O)C4)c(Cl)c32)c(F)cc1F [DELAFLOXACIN] | > 30 | > 30 | 
16 | CN1CCC2=C(C1)c1ccccc1Cc1ccccc12 [SETIPTILINE] | 8.28 |  | 
17 | O=C1CN=C(c2ccccc2)c2c(sc3c2CCCC3)N1 [BENTAZEPAM] | > 30 |  | 
18 | O=C(O)c1cccc(-c2noc(-c3ccccc3F)n2)c1 | > 30 | > 30 | AC50 [3]: > 10 µM; AC50 [4]: > 10 µM; AC50 [5]: > 30 µM; AC50 [6]: > 30 µM
19 | CCCCN(CCCC)CCCOC(=O)c1ccc(N)cc1 [BUTACAINE] | > 30 | > 30 | 

Row | Compound | AC50 [1] [µM] | AC50 [2] [µM] | further results
20 | CCOC(=O)C(c1c(O)c2ccccc2oc1=O)c1c(O)c2ccccc2oc1=O [ETHYL BISCOUMACETATE] | > 30 | > 30 | 
21 | C[C@@H]1C[C@H]2[C@@H]3C[C@H](F)C4=CC(=O)C=C[C@]4(C)[C@@]3(F)[C@@H](O)C[C@]2(C)[C@@]1(O)C(=O)COC(=O)C(C)(C)C [FLUMETHASONE PIVALATE] | > 30 |  | 
22 | CCOc1ccc(/C=C2\NCCc3cc(OCC)c(OCC)cc32)cc1OCC [DROTAVERINE] | 12.3 |  | 
23 | O=C(O)CCn1c2c(c3ccccc31)C[C@H](NS(=O)(=O)c1ccc(F)cc1)CC2 [RAMATROBAN] | > 30 | > 30 | AC50 [7]: > 10 µM; AC50 [3]: > 10 µM; AC50 [4]: > 10 µM; AC50 [5]: > 30 µM; AC50 [6]: > 30 µM
24 | NC(=O)c1cccc2cn(-c3ccc([C@@H]4CCCNC4)cc3)nc12 [NIRAPARIB] | > 30 | > 30 | 
25 | O=C1NCC2(CCN(CCc3ccccc3)CC2)O1 [FENSPIRIDE] | > 30 | 25.2 | 
26 | CCN(CC)CCNc1ccc(C)c2sc3ccccc3c(=O)c12 [LUCANTHONE] | 4.21 |  | 
27 | O=C(Nc1ccccc1)OCC(CN1CCCCC1)OC(=O)Nc1ccccc1 (stereo not drawn) [DIPERODON] | > 30 |  | AC50 [7]: > 10 µM; AC50 [3]: > 10 µM; AC50 [4]: > 30 µM; AC50 [5]: > 30 µM; AC50 [6]: > 10 µM
28 | CC/C=C\C/C=C\C/C=C\C/C=C\C/C=C\CCCC(=O)O [ICOSAPENT] | > 30 |  | 
29 | O=C(O)CCCN1CCC(O[C@@H](c2ccc(Cl)cc2)c2ccccn2)CC1 [BEPOTASTINE] | > 30 | > 30 | 
30 | Nc1ccc(C(=O)O)cc1 [AMINOBENZOIC ACID] | > 30 | > 30 | 
31 | NCc1ccccc1CC(=O)N[C@@H]1C(=O)N2C(C(=O)O)=C(CSc3nnnn3CC(=O)O)CS[C@H]12 [CEFORANIDE] | > 10 | > 30 | 
32 | CCCC1C(=O)N2C(N(C)C)=Nc3ccc(C)cc3N2C1=O (stereo not drawn) [APAZONE] | > 30 |  | 
33 | C[C@@H]1C[C@H]2[C@@H]3C[C@H](F)C4=CC(=O)C(Cl)=C[C@]4(C)[C@@]3(F)[C@@H](O)C[C@]2(C)[C@@]1(O)C(=O)CO [HALOMETASONE] | 13.1 | > 30 | 
34 | COc1ccc(-c2cc(=O)c3c(O)cc(O[C@@H]4O[C@H](CO[C@@H]5O[C@@H](C)[C@H](O)[C@@H](O)[C@H]5O)[C@@H](O)[C@H](O)[C@H]4O)cc3o2)cc1O [DIOSMIN] | > 30 |  | 
35 | C1N2CN3CN1CN(C2)C3 [METHENAMINE] | > 30 | > 30 | 
36 | CS(=O)(=O)Nc1cc2occ(NC=O)c(=O)c2cc1Oc1ccccc1 [IGURATIMOD] | > 30 |  | AC50 [3]: > 30 µM; AC50 [5]: > 30 µM; AC50 [6]: > 30 µM
37 | Cc1nc(-c2ccc(OCC(C)C)c(C#N)c2)sc1C(=O)O [FEBUXOSTAT] | 16.1 | > 30 | 
38 | COc1ccc(CCC(C)NCC(O)c2ccc(O)c([S+](C)[O-])c2)cc1 (stereo not drawn) [SULFINALOL] | > 30 |  | 
